# Source: patent US11702440B2, “Pharmaceutical polymorphs of Molnupiravir” (OPTIMUS DRUGS (P) LTD, priority 2021, dated 2023)
# What was measured:
# [1] = First-in-human phase 1 single and multiple ascending dose pharmacokinetics in healthy volunteers; assay type: in vivo
# Procedure: Single and multiple doses of Molnupiravir were evaluated in this first-in-human, phase 1, […] randomized, double-blind, placebo-controlled study in healthy volunteers, which included […] evaluation of the effect of food on pharmacokinetics. Eligible subjects were randomized in a 3:1 ratio to either study drug or placebo in the single- and multiple-ascending-dose parts of the study. Each cohort comprised 8 subjects, with single oral doses of 50 to 1600 mg administered in the single-ascending-dose part and twice-daily (BID) […] doses of 50 to 800 mg administered for 5.5 days in the multiple-ascending-dose part. Subjects were followed for 14 days following completion of dosing for assessments of safety, tolerability, and pharmacokinetics. Subjects in the food-effect evaluation were randomized in a 1:1 ratio to either 200 mg Molnupiravir in the fed state followed by 200 mg Molnupiravir in the fasted state, or vice versa, with a 14-day washout period between doses. A capsule formulation was used in all parts of the study, with the exception of single ascending doses ≤800 mg, where an oral solution formulation was used.
# [2] = In-vitro dissolution study of Molnupiravir Capsules; assay type: physicochemical; conditions: 900 ml 0.1 N HCl, paddle 50 RPM
# Procedure: Dissolution study of test product Molnupiravir Capsules 200 mg, 400 mg 800 mg was performed in order to understand % dissolution in release dissolution media. The dissolution media used for the test is 900 ml of 0.1 NHCl at 50 RPM with paddle.
# [3] = test system: coronaviruses including SARS, MERS and SARS-CoV-2; conditions: cited from earlier work
# [4] = test system: SARS-CoV-2; conditions: found in March 2020; cited from earlier work
smiles,measurement,setting,value
CC(C)C(=O)OC[C@H]1O[C@@H](n2ccc(NO)nc2=O)[C@H](O)[C@@H]1O [Molnupiravir],mean AUCinf increase with dose,"[1]; Day 1, power model, oral, lower bound of 90% CI slightly above unity",approximately dose-proportional
same,mean Cmax increase with dose,"[1]; Day 1, power model, oral, upper bound of 90% CI slightly below unity",approximately dose-proportional
same,mean Cmax increase with dose,"[1]; Day 6, BID oral dosing, 90% CI containing unity",dose proportional
same,mean AUCτ increase with dose,"[1]; Day 6, BID oral dosing, lower bound of 90% CI slightly above unity",approximately dose-proportional
same,% Drug release of Molnupiravir,"[2]; 200 mg capsules, 5 min",85%
same,% Drug release of Molnupiravir,"[2]; 200 mg capsules, 10 min",97%
same,% Drug release of Molnupiravir,"[2]; 200 mg capsules, 15 min",97%
same,% Drug release of Molnupiravir,"[2]; 200 mg capsules, 20 min",102%
same,% Drug release of Molnupiravir,"[2]; 200 mg capsules, 30 min",103%
same,% Drug release of Molnupiravir,"[2]; 200 mg capsules, 45 min",102%
same,% Drug release of Molnupiravir,"[2]; 400 mg capsules, 5 min",86%
same,% Drug release of Molnupiravir,"[2]; 400 mg capsules, 10 min",90%
same,% Drug release of Molnupiravir,"[2]; 400 mg capsules, 15 min",93%
same,% Drug release of Molnupiravir,"[2]; 400 mg capsules, 20 min",97%
same,% Drug release of Molnupiravir,"[2]; 400 mg capsules, 30 min",97%
same,% Drug release of Molnupiravir,"[2]; 400 mg capsules, 45 min",97%
same,% Drug release of Molnupiravir,"[2]; 800 mg capsules, 5 min",84%
same,% Drug release of Molnupiravir,"[2]; 800 mg capsules, 10 min",95%
same,% Drug release of Molnupiravir,"[2]; 800 mg capsules, 15 min",97%
same,% Drug release of Molnupiravir,"[2]; 800 mg capsules, 20 min",99%
same,% Drug release of Molnupiravir,"[2]; 800 mg capsules, 30 min",101%
same,% Drug release of Molnupiravir,"[2]; 800 mg capsules, 45 min",101%
same,activity against coronaviruses,[3],Activity has also been demonstrated
same,activity against SARS-CoV-2,[4],active
